Data reported in the supplement of paper PMC11208160.

Assay: recombinant barcode read abundance after kanamycin selection (control-corrected) (log10(CPM+1)); higher = more efficient recombination; sequences stand for … in AGTGCAGAGAAAATCGGCCAGTTTTCTCTGCCTGCAGTCCGCATGCCGT…AGATTTATGCAGCGGACTGCCTTTCTCCCAAAGTGATAAACCGGACAGTATCATGGACCGGTTTTCCCGGTAATCCGTATTTGCAAGGTTGGTTTCACT; site = the 11-nt target
Method in brief: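 For this pooled screen, each oligo contained a promoter, a target, a barcode and the J23119-driven first 104 bases of the bridge RNA. Gibson cloning placed it into a vector supplying the remaining 73 bp and a T7-inducible recombinase, and the pool was co-electroporated into E. coli with a donor plasmid. Recombination efficiency is derived from barcode counts per million at recombinant junctions after averaging and control correction, and is expressed on a log scale as log10(CPM+1), with selection on chloramphenicol/ampicillin/kanamycin plus 0.1 mM IPTG against a chloramphenicol/ampicillin LB agar control.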
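Also: IS621 recombinase and bridge RNA in Escherichia coli cells.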

Sequence	recombinant barcode read abundance (log10)
CTCCGTACTTGGGTTCTAACCTGTTGCCT (site CTCCGGACTAG)	0.0835
CTCCGTACTTGGGTTCTAACCTGTTGCCT (site CTCCGTACTAG)	0.858
CTCCTAGCTTGGGTTCTAACCTGTTGCTT (site CTCCGAGCTTA)	0.00954
CTCCTAGCTTGGGTTCTAACCTGTTGCTT (site CTCCTAGCTAA)	0.277
CTCCTCCCTTGGGTTCTAACCTGTTGCCT (site CTCCTCCCTAG)	1.29
CTCCTCCCTTGGGTTCTAACCTGTTGCCT (site CTCCTCTCTAG)	0.275
CTCCTCTCTTGGGTTCTAACCTGTTGCAT (site AAGTGAGCTTG)	0.0369
CTCCTCTCTTGGGTTCTAACCTGTTGCAT (site CTCCTCTCTAT)	2.03
CTCGAACCTTGGGTTCTAACCTGTTGCTG (site CTCGAACCTCA)	1.93
CTCGAACCTTGGGTTCTAACCTGTTGCTG (site CTCGAATCTTA)	0.077
CTCGGAACTTGGGTTCTAACCTGTTGCCT (site CTCGGAACTAG)	0.374
CTCGGAACTTGGGTTCTAACCTGTTGCCT (site CTCGGACCTAG)	0.257
CTCGGAACTTGGGTTCTAACCTGTTGCCT (site CTCGGAGCTAG)	0.325
CTCGGAACTTGGGTTCTAACCTGTTGCCT (site CTCGGATCTAG)	0.366
CTCGGACCTTGGGTTCTAACCTGTTGCCT (site CTCGGAACTAG)	0.209
CTCGGACCTTGGGTTCTAACCTGTTGCCT (site CTCGGACCTAG)	2.42
CTCGGACCTTGGGTTCTAACCTGTTGCCT (site CTCGGAGCTAG)	0.147
CTCGGACCTTGGGTTCTAACCTGTTGCCT (site CTCGGATCTAG)	0.263
CTCGGATCTTGGGTTCTAACCTGTTGCCT (site CTCGGAACTAG)	0.0461
CTCGGATCTTGGGTTCTAACCTGTTGCCT (site CTCGGACCTAG)	0.391
CTCGGATCTTGGGTTCTAACCTGTTGCCT (site CTCGGAGCTAG)	0.0938
CTCGGATCTTGGGTTCTAACCTGTTGCCT (site CTCGGATCTAG)	1.3

Sequence	recombinant barcode read abundance (log10)
CTCGGATCTTGGGTTCTAACCTGTTGCTA (site CTCGGATCTAA)	0.135
CTCGGATCTTGGGTTCTAACCTGTTGCTA (site CTCGGATCTCA)	0.15
CTCGGATCTTGGGTTCTAACCTGTTGCTA (site CTCGGATCTGA)	0.0177
CTCGGATCTTGGGTTCTAACCTGTTGCTA (site CTCGGATCTTA)	0.67
CTCGGATCTTGGGTTCTAACCTGTTGCTC (site CTCGGATCTAA)	0
CTCGGATCTTGGGTTCTAACCTGTTGCTC (site CTCGGATCTCA)	0.0519
CTCGGATCTTGGGTTCTAACCTGTTGCTC (site CTCGGATCTGA)	0.991
CTCGGATCTTGGGTTCTAACCTGTTGCTC (site CTCGGATCTTA)	0.138
CTCGGATCTTGGGTTCTAACCTGTTGCTG (site CTCGGATCTAA)	0.296
CTCGGATCTTGGGTTCTAACCTGTTGCTG (site CTCGGATCTCA)	1.08
CTCGGATCTTGGGTTCTAACCTGTTGCTG (site CTCGGATCTGA)	0
CTCGGATCTTGGGTTCTAACCTGTTGCTG (site CTCGGATCTTA)	0.133
CTCGTACCTTGGGTTCTAACCTGTTGCGG (site CTCGTACCTCC)	2.52
CTCGTACCTTGGGTTCTAACCTGTTGCGG (site CTCGTAGCTCC)	0.0696
CTCGTAGCTTGGGTTCTAACCTGTTGCCT (site AGTAGTTCTCT)	0.223
CTCGTAGCTTGGGTTCTAACCTGTTGCCT (site CTCGTAGCTAG)	0.651
CTCGTAGCTTGGGTTCTAACCTGTTGCGG (site CTCGTACCTCC)	0.0414
CTCGTAGCTTGGGTTCTAACCTGTTGCGG (site CTCGTAGCTCC)	1.23
CTCGTCACTTGGGTTCTAACCTGTTGCCT (site CTCGTAACTAG)	0.106
CTCGTCACTTGGGTTCTAACCTGTTGCCT (site CTCGTCACTAG)	1.91
CTCGTCACTTGGGTTCTAACCTGTTGCCT (site CTCGTGACTAG)	0.0882
CTCGTCACTTGGGTTCTAACCTGTTGCCT (site CTCGTTACTAG)	0.0923

Sequence	recombinant barcode read abundance (log10)
CTCGTGACTTGGGTTCTAACCTGTTGCCT (site CTCGTAACTAG)	0.682
CTCGTGACTTGGGTTCTAACCTGTTGCCT (site CTCGTCACTAG)	0
CTCGTGACTTGGGTTCTAACCTGTTGCCT (site CTCGTGACTAG)	1.13
CTCGTGACTTGGGTTCTAACCTGTTGCCT (site CTCGTTACTAG)	0.335
CTCTAAACTTGGGTTCTAACCTGTTGCCA (site CTCTAAACTTG)	0.106
CTCTAAACTTGGGTTCTAACCTGTTGCCA (site CTCTACACTTG)	0.671
CTCTAAACTTGGGTTCTAACCTGTTGCCA (site CTCTAGACTTG)	0.108
CTCTAAACTTGGGTTCTAACCTGTTGCCA (site CTCTATACTTG)	0.0391
CTCTAAACTTGGGTTCTAACCTGTTGCGA (site CTCTAAACTTC)	0.919
CTCTAAACTTGGGTTCTAACCTGTTGCGA (site CTCTCAGCTTC)	0.0639
CTCTAACCTTGGGTTCTAACCTGTTGCGT (site CTCTAACCTAC)	1.45
CTCTAACCTTGGGTTCTAACCTGTTGCGT (site CTCTACCCTAC)	0.0519
CTCTAACCTTGGGTTCTAACCTGTTGCGT (site CTCTAGCCTAC)	0.413
CTCTAACCTTGGGTTCTAACCTGTTGCGT (site CTCTATCCTAC)	0.0249
CTCTAGACTTGGGTTCTAACCTGTTGCCT (site CTATAGACTTG)	0.00655
CTCTAGACTTGGGTTCTAACCTGTTGCCT (site CTCTAGACTAG)	0.0941
CTCTAGCCTTGGGTTCTAACCTGTTGCAT (site CTCTAGCCTAT)	0.505
CTCTAGCCTTGGGTTCTAACCTGTTGCAT (site GTCCAGCCTAT)	0
CTCTAGTCTTGGGTTCTAACCTGTTGCTT (site CTCTAGTCTAA)	0.748
CTCTAGTCTTGGGTTCTAACCTGTTGCTT (site CTCTAGTCTAC)	0.518
CTCTAGTCTTGGGTTCTAACCTGTTGCTT (site CTCTAGTCTAG)	0.377
CTCTAGTCTTGGGTTCTAACCTGTTGCTT (site CTCTAGTCTAT)	0.755
